Legend:
[1] = Measurement of blood concentration of a compound by ex vivo binding assay; conditions: Wistar male rat, oral 10 mg/kg in 0.5% MC, serum 2 hours after administration, read-out: Blood compound concentration (B) 2 hour value
Method: Each compound to be tested was dissolved or suspended in 0.5% methyl cellulose (MC) solution and was orally administered to Wistar male rat of 9 weeks of age (SLC Japan) at a dose of 10 mg/kg. Blood sample was collected after 2 hours of the administration to obtain serum.
Each serum sample was mixed with the same volume of methanol to remove protein and optionally diluted with an assay buffer, and then the ^125I-D-Trp^6-LHRH binding inhibition ratio was measured in the same manner as in Test Example 1. Using a separately prepared calibration curve on the concentration-binding inhibition of compounds to be tested, blood concentration of each compound (μM) was calculated from the binding inhibition ratio.

[2] = target: T1, human GnRH receptor (Homo sapiens, UniProt P30968); experiment: Test on GnRH receptor antagonism (125I-D-Trp6-LHRH binding inhibition); conditions: inhibition of 125I-D-Trp6-LHRH binding to human GnRH receptor
T1 sequence (P30968 1-328): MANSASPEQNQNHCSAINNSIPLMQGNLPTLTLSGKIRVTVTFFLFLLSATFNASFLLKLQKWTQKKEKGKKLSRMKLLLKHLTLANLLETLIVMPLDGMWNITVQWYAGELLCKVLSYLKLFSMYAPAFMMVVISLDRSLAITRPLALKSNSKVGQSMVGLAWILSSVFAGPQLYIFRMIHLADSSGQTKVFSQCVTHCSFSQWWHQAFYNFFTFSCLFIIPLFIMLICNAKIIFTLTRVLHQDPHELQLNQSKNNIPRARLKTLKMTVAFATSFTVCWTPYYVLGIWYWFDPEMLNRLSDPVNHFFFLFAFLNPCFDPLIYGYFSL
Description: GnRH receptor antagonism test method described on p. 56 of the Patent Reference 1.

[3] = target: Cytochrome P450 (CYP3A4) (Homo sapiens, UniProt P08684); experiment: Cytochrome P450 (CYP3A4) enzyme inhibition, Inhibition Test II (preincubation); assay type: in vitro ADME; conditions: 30 minutes preincubation with human liver microsome and NADPH, then midazolam 20 minutes; compared with Ex 40, Ex 251, Ex 239 of Patent Reference 1
Chain of Cytochrome P450 (CYP3A4) (P08684 whole entry): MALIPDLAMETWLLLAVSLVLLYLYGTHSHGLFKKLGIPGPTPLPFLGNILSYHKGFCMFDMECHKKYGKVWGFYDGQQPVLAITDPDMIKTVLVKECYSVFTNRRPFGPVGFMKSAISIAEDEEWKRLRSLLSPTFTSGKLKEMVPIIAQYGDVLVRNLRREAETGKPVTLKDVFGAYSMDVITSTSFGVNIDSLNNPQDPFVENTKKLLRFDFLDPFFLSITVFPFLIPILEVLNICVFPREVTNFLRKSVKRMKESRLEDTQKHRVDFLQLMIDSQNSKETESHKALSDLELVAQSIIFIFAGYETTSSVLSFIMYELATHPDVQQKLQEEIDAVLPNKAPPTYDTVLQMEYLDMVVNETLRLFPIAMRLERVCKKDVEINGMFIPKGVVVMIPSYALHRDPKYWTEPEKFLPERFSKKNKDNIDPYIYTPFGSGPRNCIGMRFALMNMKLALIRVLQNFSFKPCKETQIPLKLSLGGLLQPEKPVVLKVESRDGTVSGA
Method: Thereafter, midazolam as the substrate was added thereto and incubated at 37° C. for 20 minutes.

[4] = Test on metabolic stability in human liver microsome; assay type: in vitro ADME; conditions: human liver microsome 0.2 mg protein/ml, 37° C. 15 minutes; compared with Ex 40, Ex 251, Ex 239 of Patent Reference 1

Row | SMILES | concentration at 2 h [1] [nM] | IC50 [2] [pM] | Inhibitory activity II (CYP3A4) [3] | melting point [°C] | metabolic stability in human liver microsome (in vitro clearance) [4]
1 | O=C(C(C(=O)c1cccc(C(O)CO)c1)=C1Nc2ccccc2N1)c1cc(F)cc(Cl)c1 (stereo not drawn) [Ex 2-3] | 710 | 82 | – | – | –
2 | O=C(C(C(=O)c1cc(F)c(F)c(F)c1)=C1Nc2ccccc2N1)c1cccc(C(O)CO)c1 (stereo not drawn) [Ex 2-4] | 1310 | 170 | superior actions | 139 to 140 | superior metabolic stability
3 | O=C(C(C(=O)c1cccc(C(O)CO)c1)=C1Nc2ccc(F)cc2N1)c1cc(F)cc(F)c1 (stereo not drawn) [Ex 2-5] | 820 | 100 | – | – | –
4 | O=C(C(C(=O)c1cccc(C(O)CO)c1)=C1Nc2ccccc2N1)c1cccc(F)c1 (stereo not drawn) [Ex 2-7] | 1650 | 190 | – | – | –
5 | O=C(C(C(=O)c1cccc(C(O)CO)c1)=C1Nc2cc(F)c(Cl)cc2N1)c1cc(F)cc(F)c1 (stereo not drawn) [Ex 2-12] | 920 | 150 | – | – | –
6 | O=C(C(C(=O)c1cc(C(O)CO)ccc1F)=C1Nc2ccccc2N1)c1cc(F)cc(F)c1 (stereo not drawn) [Ex 2-20] | 1140 | 200 | – | – | –
7 | O=C(C(C(=O)c1cc(F)cc(F)c1F)=C1Nc2ccccc2N1)c1cccc(C(O)CO)c1 (stereo not drawn) [Ex 2-48] | 2160 | 220 | – | 127 to 129 | –
8 | O=C(C(C(=O)c1cccc(C(O)CO)c1)=C1Nc2ccccc2N1)c1cccc(Cl)c1 (stereo not drawn) [Ex 2-50] | 880 | 120 | – | – | –
9 | O=C(C(C(=O)c1cccc([C@@H](O)CO)c1)=C1Nc2ccccc2N1)c1cccc(F)c1 [Ex 4-1, 2-(1,3-dihydro-2H-benzimidazol-2-ylidene)-1-{3-[(1R)-1,2-dihydroxyethyl]phenyl}-3-(3-fluorophenyl)propane-1,3-dione] | 1360 | 93 | superior actions | 190 to 191 | superior metabolic stability
10 | O=C(C(C(=O)c1cccc([C@@H](O)CO)c1F)=C1Nc2ccccc2N1)c1cccc(F)c1 [Ex 4-4] | 1040 | 100 | superior actions | 197 to 198 | superior metabolic stability
11 | Cc1c(C(=O)C(C(=O)c2cc(F)cc(F)c2)=C2Nc3ccccc3N2)cccc1[C@@H](O)CO [Ex 4-5] | 3740 | 120 | superior actions | 228 to 229 | superior metabolic stability
12 | CCCCc1c(C(=O)C(C(=O)c2cccc(F)c2)=C2Nc3ccccc3N2)cccc1[C@@H](O)CO [Ex 4-8] | 1790 | 81 | – | 132 to 133 | –
13 | O=C(C(C(=O)c1cccc([C@@H](O)CO)c1Cl)=C1Nc2ccccc2N1)c1cccc(Cl)c1 [Ex 4-15] | 1440 | 76 | – | 134 to 136 | –
14 | O=C(C(C(=O)c1cccc([C@@H](O)CO)c1Cl)=C1Nc2ccccc2N1)c1cccc(F)c1 [Ex 4-21] | 2170 | 240 | superior actions | 125 to 127 | superior metabolic stability
15 | O=C(C(C(=O)c1ccc(F)c([C@@H](O)CO)c1)=C1Nc2ccccc2N1)c1cc(F)cc(F)c1 [Ex 4-22] | 2170 | 130 | superior actions | 147 to 149 | superior metabolic stability
16 | Cc1c(C(=O)C(C(=O)c2cccc(Cl)c2)=C2Nc3ccccc3N2)cccc1[C@@H](O)CO [Ex 4-23] | 1110 | 180 | – | – | –
17 | Cc1cccc(C(=O)C(C(=O)c2cccc([C@@H](O)CO)c2C)=C2Nc3ccccc3N2)c1 [Ex 4-25] | 1390 | 140 | superior actions | – | superior metabolic stability
18 | Cc1c(C(=O)C(C(=O)c2ccccc2F)=C2Nc3ccccc3N2)cccc1[C@@H](O)CO [Ex 4-29] | 6440 | 190 | superior actions | 215 to 217 | superior metabolic stability
19 | O=C(C(C(=O)c1cccc([C@@H](O)CO)c1Cl)=C1Nc2ccccc2N1)c1cc(F)cc(F)c1 [Ex 4-30] | 1500 | 100 | superior actions | 126 to 129 | superior metabolic stability
20 | Cc1cccc(C(=O)C(C(=O)c2cccc([C@@H](O)CO)c2Cl)=C2Nc3ccccc3N2)c1 [Ex 4-32] | 670 | 120 | – | – | –
21 | O=C(C(C(=O)c1cccc([C@@H](O)CO)c1F)=C1Nc2ccccc2N1)c1cc(F)cc(F)c1 [Ex 4-33] | 1590 | 120 | – | – | –
22 | O=C(C(C(=O)c1cccc([C@@H](O)CO)c1)=C1Nc2ccccc2N1)c1cc(F)cc(F)c1 [Ex 13-2, 1-(3,5-difluorophenyl)-2-(1,3-dihydro-2H-benzimidazol-2-ylidene)-3-{3-[(1R)-1,2-dihydroxyethyl]phenyl}propane-1,3-dione] | – | – | – | 189 to 190 | –
